Test results published in US20240350481A1, “USE OF N-MYRISTOYL TRANSFERASE (NMT) INHIBITORS IN THE TREATMENT OF CANCER, AUTOIMMUNE DISORDERS, AND INFLAMMATORY DISORDERS” (PACYLEX PHARMACEUTICALS INC., priority 2020, published 2024).
Where two headings read alike, the source gives them in different places.

Key:
[1] = tested on: cell lines originating from solid tumors; assay: ChemPartner cell line screen, CellTiter Blue; assay type: cell-based; conditions: 72 h; 3 days of treatment; 10 μM is the highest dose tested; read-out: median IC50
Description: (§1) 131 cell lines were seeded in 96-well plate, black wall, tissue culture treated (from Corning, Cat.3904) and cultured following ATCC formulation. Cell viability after 72 hrs and 144 hrs was measured using Cell Titer Blue Viability Assay (from Promega, Cat. G8081, Lot. No. 0000190181) and fluorescence at 560/590 nm was recorded with Enspire (PerkinElmer). EC50 was calculated using XLfit software (5.5).

[2] = tested on: hematological cancer cell lines; assay: ChemPartner cell line screen, CellTiter Blue; assay type: cell-based; conditions: 72 h; 3 days of treatment; read-out: median IC50
Description: as §1

EGFP-N-Ras = assay: Palmitoylation of EGFP-N-Ras in COS-7 cells; assay type: cell-based; conditions: 10 μM
Description: The cells pre-treated with inhibitors were then labelled for 4 hrs with 100 μM Alkyne-C16. EGFP-tagged constructs were immunoprecipitated as described and reacted with azido-biotin using click chemistry. Biotinylated-palmitoylated proteins were detected using neutravidin-HRP conjugate and ECL. […] All western blots shown are representative of three independent experiments.

DOHH2 tumors = assay: DOHH2 xenograft, tumor growth; assay type: in vivo, mouse
Description: DOHH2 xenograft study at Charles River's facility: […] On Day 1 of the study, animals were given a rehydration solution ad libitum in an effort to reduce dehydration during the dosing phase of the study. […] The dose volume was 10 mL/kg.

BL2 xenografts = assay: BL2 xenograft, tumor growth; assay type: in vivo, mouse
Excerpt: BL2 xenograft study at Jackson Laboratory: One hundred five (105) 6 week old female NOD.CB17-Prkdc scid/J (NOD scid, Stock #001303) mice were transferred to the in vivo research laboratory in Sacramento, CA. The mice were ear notched for identification and housed in individually and positively ventilated polysulfone cages with HEPA filtered air at a density of 5 mice per cage. Initially cages were changed every two weeks. The animal room was lighted entirely with artificial fluorescent lighting, with a controlled 12 hour light/dark cycle (6 am to 6 pm light). The normal temperature and relative humidity ranges in the animal rooms were 20-26° C. and 30-70%, respectively. The animal rooms were set to have up to 15 air exchanges per hour. Filtered tap water, acidified to a pH of 2.5 to 3.0, and standard lab chow were provided ad libitum.
(§2) The dose volume was 10 mL/kg.
TGI (%)=(Vcontrol−Vtreated)/(Vcontrol−Vnitial)*100.

[3] = Description: Data collected were the same as in the Charles River xenograft study—clinical signs, body weight, tumor volume, blood samples from 3 mice/group for hematology and clinical chemistry (ALT, AST, BUN, creatinine, CK), and tissue samples collected and fixed from the same 3 mice. Liver, kidneys, and small intestine also were weighed.
as §2

[4] = Toxicology in DLBCL3 patient derived xenograft mice; assay type: in vivo, mouse; conditions: for Absolute Basophil cells: normal [0-0.2]; for Absolute Monocyte cells: normal [0-0.4]; for Basophil %: normal [0-2]; for Eosinophil %: normal [0-3.9]; for Monocyte %: normal [0-7.5]; for Absolute Neutrophil cells: normal [0.1- 2.4]; for WBC: normal [1.8-10.7]; for MPV: normal [5-20]; for RDW %: normal [12.4-27]
Description: as §2

[5] = T cell viability by flow cytometry; assay type: cell-based; conditions: human, purified T cells from healthy donors; for viability at 4 days, 20 nM: Drug 20 nM; for viability at 4 days, 100 nM: Drug 100 nM; for viability at 4 days, 500 nM: Drug 500 nM
Description: Human peripheral blood mononuclear cells (PBMC) and purified T cells from healthy donors were purchased from […] Technologies (CA). Cells (7.5×10^6/ml) were cultured in the RPMI supplementing with 10% heat-inactivated fetal bovine serum (vWR), 1% penicillin/streptomycin (SigmaMillipore), 1% sodium pyruvate, and 1% non-essential amino acids (Gibco) in 24 well plates in the presence of 100 IU/ml interleukin 2 ([…] Technologies or HIV reagent program (managed by ATCC).
Then, cells were induced with T cell activator ([…]) in the presence of the drugs for 2 more days. After 4 days, the viability of treated T cells was analyzed using Flow cytometry. The supernatants for both PBMC and T cells were collected for further analysis.

[6] = Mouse IV; cited from earlier work
[7] = rats; cited from earlier work
[8] = dogs; cited from earlier work
[9] = DLBCL patient derived xenograft, PCLX-001 20 mg/kg/day
[10] = DLBCL patient derived xenograft, PCLX-001 50 mg/kg/day

SMILES: Cc1c(N[S+](=O)([O-])c2c(Cl)cc(-c3ccnc(N4CCNCC4)c3)cc2Cl)c(CC(C)C)nn1C [PCLX-001]
- IC50 [1]: ≥ 10 µM
- IC50 [2]: 0.166 µM
- palmitoylation of EGFP-N-Ras (EGFP-N-Ras): does not inhibit
- mean tumor growth inhibition (TGI) (DOHH2 tumors; 50 mg/kg daily with 5-day interruption, by day 16): 95%
- reduction of tumor size (DOHH2 tumors; 50 mg/kg daily, by day 7): up to 70%
- average tumor size (DOHH2 tumors; 50 mg/kg daily, day 7): 44.0±8.1 mm^3
- tumor regression (BL2 xenografts; 20 mg/kg daily, by day 9): 42.5%
- tumor regression (BL2 xenografts; 56 mg/kg daily, 13 days): 100%
- tumor regression (BL2 xenografts; 60 mg/kg daily, 13 days): 100%
- clinical pathology and anatomic pathology ([3]; 20, 50, 60 mg/kg/day): no clinical pathology or anatomic pathology findings
- dehydration and body weight ([3]; 50 or 60 mg/kg/day): Dehydration and weight loss
- clinical signs ([3]; most mice in groups given PCLX-001 (20, 50, 60 mg/kg/day)): Signs of ill health
- loss of body weight ([4]; 50 mg/kg daily): ~15%
- clinical signs, clinical pathology, anatomic pathology ([4]; 20 and 50 mg/kg): no clinical signs of toxicity, effects on clinical pathology parameters, or anatomic pathology findings
- Hematocrit % [4, 9]: 47.13 ± 1.1%
- MCV [4, 9]: 53.5 ± 0.36
- Neutrophil % [4, 9]: 57.17 ± 9.40%
- RBC [4, 9]: 8.81 ± 0.15 M/ul
- Absolute Basophil cells [4, 9]: 0 ± 0
- Absolute Monocyte cells [4, 9]: 0.23 ± 0.06
- Basophil % [4, 9]: 0.1 ± 0.04%
- Eosinophil % [4, 9]: 0.26 ± 0.08%
- Monocyte % [4, 9]: 15.48 ± 4.35%
- Absolute Neutrophil cells [4, 9]: 0.86 ± 0.22
- WBC [4, 9]: 1.49 ± 0.24 K/ul
- MPV [4, 9]: 4.93
- RDW % [4, 9]: 18.07 ± 0.03%
- Hematocrit % [4, 10]: 42.47 ± 4.04%
- MCV [4, 10]: 50.83 ± 0.35
- Neutrophil % [4, 10]: 58.04%
- RBC [4, 10]: 8.36 ± 0.83 M/ul
- Absolute Basophil cells [4, 10]: 0 ± 0
- Absolute Monocyte cells [4, 10]: 0.37 ± 0.07
- Basophil % [4, 10]: 0.04 ± 0.04%
- Eosinophil % [4, 10]: 0.32 ± 0.1%
- Monocyte % [4, 10]: 17.24%
- Absolute Neutrophil cells [4, 10]: 1.28 ± 0.34
- Absolute Lymphocyte cells ([4]; DLBCL patient derived xenograft, PCLX-001 50 mg/kg/day, normal [0.9-9.3]): 0.52 ± ? .12
- WBC [4, 10]: 2.17 ± 0.5 K/ul
- MPV [4, 10]: 5.27 ± 0.18
- RDW % [4, 10]: 20.37 ± 0.37%
- MCH ([4]; DLBCL patient derived xenograft, PCLX-001 50 mg/kg/day, normal [14.1-19.3]): 12.5 pg
- MCHC ([4]; DLBCL patient derived xenograft, PCLX-001 50 mg/kg/day, normal [30.2-34.2]): 24.53 ± 0.24 g/dL
- Lymphocyte % ([4]; DLBCL patient derived xenograft, PCLX-001 50 mg/kg/day, normal [55.8-91.6]): 24.36 ± 2.93%
- viability at 4 days, 20 nM ([5]; T cells viability (#1)): 9%
- viability at 4 days, 100 nM ([5]; T cells viability (#1)): 8%
- viability at 4 days, 500 nM ([5]; T cells viability (#1)): 10%
- viability at 4 days, 20 nM ([5]; T cells viability (#2)): 66%
- viability at 4 days, 100 nM ([5]; T cells viability (#2)): 60%
- viability at 4 days, 500 nM ([5]; T cells viability (#2)): 62%
- viability at 4 days, 20 nM ([5]; T cells viability (#3)): 76%
- viability at 4 days, 100 nM ([5]; T cells viability (#3)): 71%
- viability at 4 days, 500 nM ([5]; T cells viability (#3)): 68%
- Clearance [6]: 0.18 L/h/kg
- toxicity at high dose levels [7]: hematopoietic toxicity
- toxicity at high dose levels [8]: hematopoietic toxicity
